A short description of this data set: Particle size analysis in water suspension, Beckman LS230. It counts as physicochemical. The following applies: feedstock of Example 5, water suspension, Beckman Coulter LS230. As to the method: The vessel was charged with 405 g of CO2. The agitator rpm was 1,776. The mixing process was run for 1 hr. The final temperature and pressure were 28° C. and 1,434 psig, respectively.
Particle size analysis was done in water suspension using Beckman LS230, however it is known that in an aqueous medium Poloxamer is likely to dissolve.

Consider one molecule from US20060013871A1 (priority 2003, published 2006).

In the case of `CC(C)Cc1ccc(C(C)C(=O)O)cc1` (stereo not drawn) [Ibuprofen], the “d16 particle size of feedstock” value was determined as 21.8 micron, the “d50 particle size of feedstock” value is 41.21 microns and the “d84 particle size of feedstock” value is reported as 71.05 microns.
